# Experimental data as given in paper PMC6175062, “Gaining Mechanistic Insight Into Coproporphyrin I as Endogenous Biomarker for OATP1B‐Mediated Drug–Drug Interactions Using Population Pharmacokinetic Modeling and Simulation” (Clinical Pharmacology and Therapeutics, 2018).
# Read-outs that look alike come from different tables or passages of the source.
# Assays:
# OATP [1] = molecular target: OATP; parameters: method as in PMID 27170342; settings: cited from earlier work
# OATP [2] = settings: inhibitor 600 mg, rosuvastatin 5 mg; ref (20); cited from earlier work
# OATP1B3 = tested on: OATP1B3; parameters: method as in earlier work; settings: ref (3, 4), cited from earlier work
# OATP1B = assay: Model-based rifampicin in vivo OATP Ki using CPI as probe; parameters: species or system human; settings: for Ki: human, plasma, oral, 600 mg, probe CPI (endogenous biomarker)
# Description: The plasma concentrations of the endogenous biomarker CPI were described using a turnover model (Equation 3).36 Simultaneous fitting of individual CPI plasma and urine data in the presence and absence of RIF was performed. In the final model, RIF inhibited biliary elimination (CL b,CPI) of CPI, whereas its renal clearance (CL R,CPI) and k syn were not affected. The rate of change of CPI plasma concentration under baseline and RIF condition is shown in Equations 3 and 4, respectively, whereas change in CPI amount in urine over time is shown in Equation 5. (3) dCCPI/dt=[ksyn−CLb,CPI⋅CCPI−CLR,CPI⋅CCPI]⋅1/VCPI (4) dCCPI/dt=[ksyn−CLb,CPI⋅CCPI/1+CRIF/KiCPI−CLR,CPI⋅CCPI]⋅1/VCPI (5) dUCPI/dt=CLR,CPI⋅CCPI where C CPI is its plasma concentration, U CPI is the CPI amount in urine, t is time, k syn is the zero‐order synthesis rate, Ki CPI is RIF transporter inhibition constant using CPI as a probe, V CPI is the volume of distribution of CPI and C RIF is RIF plasma concentration (linked to RIF model). Simulations were also performed to assess the consequences of the hypothetical inhibition of both CPI synthesis (k syn and biliary elimination (CL b,CPI) by inhibitor of interest (details in Supplementary Material).
# [3] = tested on: OATP-mediated rosuvastatin uptake in human hepatocytes; assay: Rifampicin inhibition of rosuvastatin uptake in plated human hepatocytes; assay type: cell-based; settings: RSV 2 µM; no pre-incubation effect, same donor
# Description: The in vitro IC50 for rifampicin was assessed using CPI and RSV as OATP probe substrates in plated human hepatocytes. Cryopreserved human hepatocytes (Donor QQE, BioreclamationIVT, Baltimore, MD) were thawed and plated at a density of 350,000 cells (1). After culturing for 4h, hepatocytes were washed twice with Dulbecco's phosphate-buffered saline and pre-incubated for an hour with either buffer or rifampicin (0.01-100µM). Following pre-incubation, the medium was replaced with CPI (0.30µM) or RSV (2µM) containing rifampicin (0-100µM). Incubations were stopped after 3 or 5 minutes (for RSV and CPI,respectively) using the washing protocol described previously (2). Monolayers were lysed with water and frozen overnight and then prepared for protein quantification (BCA assay) and LC-MS/MS analysis.
# Lysate concentrations were used to demine uptake rates over a series of free RIF concentrations measured in the medium and plotted as a % of the control to estimate RIF IC50 (Main article Figure 5A and Figure S1). RIF IC50 was determined using equation 1, where U denotes the uptake rate (% vs control) at the free inhibitor concentration in the incubation [I] (µM); R, the range of inhibition; B, the un-inhibitable background (%), and S, the slope factor (GraFit v6).
smiles,measurement,setting,value
CO[C@H]1/C=C/O[C@@]2(C)Oc3c(C)c(O)c4c(O)c(c(/C=N/N5CCN(C)CC5)c(O)c4c3C2=O)NC(=O)/C(C)=C\C=C\[C@H](C)[C@H](O)[C@@H](C)[C@@H](O)[C@@H](C)[C@H](OC(C)=O)[C@@H]1C [rifampicin],Ki,OATP [1]; read-out: in vivo Ki estimated from pitavastatin clinical data,230 nM
same,Ki,OATP [1]; read-out: in vivo Ki estimated from pravastatin clinical data,190 nM
same,Fold Change in AUC of rosuvastatin,OATP [2],4.7 fold
same,IC50,"OATP1B3; read-out: IC50, OATP1B3 transfected cells, CPI as substrate",250 to 1610 nM
same,IC50,"OATP1B3; read-out: IC50, OATP1B3 transfected cells, CPIII as substrate",270 to 1410 nM
same,difference between unbound in vivo Ki from CPI and from RSV,OATP1B; CPI-based Ki lower,2 fold
same,Ki,"OATP1B; corrected for rifampicin fu plasma 0.11, read-out: in vivo unbound OATP Ki using CPI data",130 nM
same,Ki,"OATP1B; total (not corrected for fu), CPI as probe, read-out: KiCPI, total Ki estimated by the model, population estimate (SE%)",1150 nM
same,IC50,[3],1000 nM
